Data on two molecules can be found in patent US12144808B2, “Compositions and methods” (INTRA-CELLULAR THERAPIES, INC., priority 2018, dated 2024).

A short description of one data set: oral bioavailability. The note with it: in vivo.
Data set [1] can be described thus: Example 1A: pharmacokinetics of subcutaneous (SC) and sublingual (SL) dosing in dogs. The note with it: male, beagle, dog, 1 mg/kg, tosylate salt, plasma; for AUC: 0-24 hours. The data set is classed as in vivo. As for the experimental part:
SC Administration: Six male beagle dogs between 2 and 5 years of age are randomized in two groups of three dogs each. […] Dogs in group 2 are administered the Compound of Formula II at a dose of 1 mg/kg (free base equivalent) in a 0.5% methylcellulose/distilled water vehicle. Administration is subcutaneous in the intrascapular region via a 22 or 23 gauge needle. Whole blood samples are collected via the dog's cephalic vein pre-dose, and at post-dose time-points 5, 15 and 30 minutes, 1, 2, 4, 6, 8 and 24 hours. Following a minimum 7-day washout period, the dogs are transferred to the sublingual portion of the study.
Dogs in group 2 are administered the Compound of Formula II at a dose of 1 mg/kg (free base equivalent) in a 0.5% methylcellulose/distilled water vehicle. The animals are anesthetized prior to administration of the dose using propofol (6 mg/kg) and anesthesia is maintained for 30 minutes using 3-4.5% isoflurane. Administration is sublingual and the dosage is applied for 30 minutes, then wiped off using unwoven gauze. Whole blood samples are collected via the dog's cephalic vein pre-dose, and at post-dose time-points 5, 15 and 30 minutes, 1, 2, 4, 6, 8, 24, 36 and 48 hours.
All blood samples are processed to plasma and analyzed for drug concentrations using liquid chromatography-tandem mass spectrometry (LC-MS/MS). Area under the curve (AUC) of parent and metabolites based on plasma versus time data are calculated using Prism 5.04 software (GraphPad Software, Inc.).

Data set [2] in a line: Example 1B: SC and SL pharmacokinetics in dogs with metabolite analysis. The format is in vivo. Conditions: male, beagle, dog, 1 mg/kg, plasma, analyte parent; for AUC: 0-24 hours. The protocol:
SC Administration: Six male beagle dogs between 2 and 5 years of age are randomized in two groups of three dogs each. […] Administration is subcutaneous in the intrascapular region via a 22 or 23 gauge needle. […] Following a minimum 7-day washout period, the dogs are transferred to the sublingual portion of the study. SL Administration: […] The animals are anesthetized prior to administration of the dose using propofol (6 mg/kg) and anesthesia is maintained for 30 minutes using 3-4.5% isoflurane. Administration is sublingual and the dosage is applied for 30 minutes, then wiped off using unwoven gauze. […] All blood samples are processed to plasma and analyzed for drug concentrations using liquid chromatography-tandem mass spectrometry (LC-MS/MS). Area under the curve (AUC) of parent and metabolites based on plasma versus time data are calculated using Prism 5.04 software (GraphPad Software, Inc.). A second study is performed substantially as described for Example 1A, except that plasma samples are analyzed for the parent (administered) compounds, as well as for the major known metabolites. […] The results are summarized in Table 1B below (AUC is shown for 0-24 hours): […]

A short description of data set [3]: Example 2: pharmacokinetics of oral dosing in dogs. The format is in vivo. The note with it: both sexes, beagle, dog, plasma, oral capsules, tosylate salt; for AUC: 0-24 hours. The protocol: For control, the dogs are administered empty capsules. For the Compound of Formula I, the dogs are administered normal-release oral capsules. Blood samples are obtained at 0.25 hours, 0.5 hours, 1 hour, 4 hours, 8 hour and 24 hours. […] Cmax, Tmax and area-under-the-curve (AUC, 0-24 hours) are calculated using Phoenix WinNonlin software.

A short description of data set [4]: Example 3: pharmacokinetics of SC and IV dosing in monkeys. The format is in vivo. Conditions: cynomolgus monkey, 0.5 mg/kg, plasma; for AUC: read-out: AUC, Parent Compound; for Cmax: read-out: Cmax, Parent Compound; for Tmax: read-out: Tmax, Parent Compound. The protocol: Six Cynomolgus monkeys are divided into two groups for IV and SC dosing with the Compound of Formula I. The animals are dosed in a fasting state. Blood samples are collected pre-dose, and at 5 minutes, 15 minutes, 1, 2, 4, 6, 8, 24, 36 and 48 hours post-dose. All blood samples are processed to plasma and later analyzed by liquid chromatography-tandem mass spectrometry. […] PK parameters are calculated using PK Solutions 2.0 software (Summit Research Services, Colorado, US).

Data set [5] has as its target H1 histaminergic receptors (Homo sapiens, UniProt P35367). Conditions: cited from earlier work.
A further data set deals with T1, 5-HT2C receptors (Homo sapiens, UniProt P28335).
T1 sequence (P28335 33-458): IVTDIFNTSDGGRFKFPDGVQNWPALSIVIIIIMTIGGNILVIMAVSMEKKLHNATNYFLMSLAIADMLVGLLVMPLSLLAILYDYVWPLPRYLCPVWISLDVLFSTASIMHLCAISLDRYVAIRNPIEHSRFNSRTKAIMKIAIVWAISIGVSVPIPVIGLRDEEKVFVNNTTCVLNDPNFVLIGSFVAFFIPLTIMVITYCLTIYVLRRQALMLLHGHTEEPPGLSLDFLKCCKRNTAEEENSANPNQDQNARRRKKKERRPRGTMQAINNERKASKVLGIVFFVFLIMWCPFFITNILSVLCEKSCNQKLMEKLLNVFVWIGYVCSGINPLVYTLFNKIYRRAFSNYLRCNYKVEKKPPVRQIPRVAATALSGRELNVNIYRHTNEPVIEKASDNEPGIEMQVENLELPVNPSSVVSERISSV
Conditions: cited from earlier work.

For the next data set, the system named is muscarinic receptors. The note with it: cited from earlier work.

Chain of H1 histaminergic receptors (P35367 whole entry): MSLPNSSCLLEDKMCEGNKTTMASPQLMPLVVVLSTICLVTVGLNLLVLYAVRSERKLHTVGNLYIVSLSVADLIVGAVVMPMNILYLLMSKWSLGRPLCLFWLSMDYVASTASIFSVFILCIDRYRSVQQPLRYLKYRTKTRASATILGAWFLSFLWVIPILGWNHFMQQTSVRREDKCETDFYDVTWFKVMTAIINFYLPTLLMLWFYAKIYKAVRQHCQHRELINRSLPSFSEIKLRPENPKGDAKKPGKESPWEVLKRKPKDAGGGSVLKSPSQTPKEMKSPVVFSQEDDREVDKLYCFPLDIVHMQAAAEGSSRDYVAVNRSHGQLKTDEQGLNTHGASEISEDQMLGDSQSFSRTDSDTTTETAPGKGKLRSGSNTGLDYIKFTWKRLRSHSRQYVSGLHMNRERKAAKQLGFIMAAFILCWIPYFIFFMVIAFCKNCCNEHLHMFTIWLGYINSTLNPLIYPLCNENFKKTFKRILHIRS

In the case of `CN1CCN2c3c(cccc31)[C@@H]1CN(CCCC(=O)c3ccc(F)cc3)CC[C@@H]12` [Compound of Formula I, 1-(4-fluoro-phenyl)-4-((6bR,10aS)-3-methyl-2,3,6b,9,10,10a-hexahydro-1H,7H-pyrido[3′,4′:4,5]pyrrolo[1,2,3-de]quinoxalin-8-yl)-butan-1-one], the bioavailability (in general, the share of a dose that reaches the circulation, judged against a reference dose that is usually intravenous) in the data set “oral bioavailability” is ≤ 5%; in data set [4] (Cynomolgus, subcutaneous, SC administration, read-out: bioavailability (comparison of IV to SC pharmacokinetics)), ~74%. Further, the peak concentration (Cmax) (commonly the highest concentration seen after dosing) stood at 110 ng/mL in data set [1] (SC); 259 ng/mL in data set [1] (SL); 76 ng/mL in data set [2] (SC); 179 ng/mL in data set [2] (SL); 5.51 ng/mL in data set [3] (2.5 mg/kg); 7.72 ng/mL in data set [3] (5 mg/kg). Moreover, the Cmax amounted to 29 ng/mL in data set [3] (10 mg/kg); 44.5 ng/mL in data set [3] (15 mg/kg); 23 ng/mL in data set [4] (Cynomolgus, SC); 94 ng/mL in data set [4] (IV). Further, the Tmax – broadly, the time at which the peak concentration occurs – in data set [1] (SC) amounted to 1 h; in data set [1] (SL) it was 1 h; in data set [2] (SC), 1 h; in data set [2] (SL), 1 h; in data set [3] (2.5 mg/kg) it was 0.469 h; in data set [3] (5 mg/kg), 0.875 h. The Tmax worked out at 0.813 h in data set [3] (10 mg/kg); 1.63 h in data set [3] (15 mg/kg); 2 h in data set [4] (Cynomolgus, SC); 0.083 h in data set [4] (IV). Besides, the AUC – broadly, the area under the concentration-time curve, a measure of exposure – in data set [1] (SC) amounted to 813 ng·h/mL; in data set [1] (SL), 734 ng·h/mL; in data set [2] (SC), 560 ng·h/mL; in data set [2] (SL) it was 507 ng·h/mL; in data set [3] (2.5 mg/kg), 40 ng·h/mL; in data set [3] (5 mg/kg), 52.5 ng·h/mL. Also, the AUC in data set [3] (10 mg/kg) is 142 ng·h/mL; in data set [3] (15 mg/kg), 248 ng·h/mL; in data set [4] (Cynomolgus, SC) it was 220 ng·h/mL; in data set [4] (IV) it was 297 ng·h/mL. Moreover, the “binding to H1 histaminergic receptors” value in data set [5] is “negligible binding”. Besides, at 5-HT2C receptors, the “binding to 5-HT2C receptors” value is on record as “negligible binding”. Also, in the data set on muscarinic receptors, the “binding to muscarinic receptors” value was “negligible binding”.
In the case of `[2H]C1([2H])CN2c3c(cccc3N1C)[C@@H]1CN(CCCC(=O)c3ccc(F)cc3)CC[C@@H]12` [Compound of Formula II, 1-(4-fluoro-phenyl)-4-((6bR,10aS)-2,2-d2-3-methyl-2,3,6b,9,10,10a-hexahydro-1H,7H-pyrido[3′,4′:4,5]pyrrolo[1,2,3-de]quinoxalin-8-yl)-butan-1-one], the Cmax in data set [1] (SC) turned out to be 79 ng/mL; in data set [1] (SL), 562 ng/mL; in data set [2] (SC), 79 ng/mL; in data set [2] (SL), 562 ng/mL. Moreover, the Tmax in data set [1] (SC), in data set [1] (SL), in data set [2] (SC) and in data set [2] (SL) was 1 h in each case. Further, the exposure (AUC) came to 785 ng·h/mL in data set [1] (SC), 1260 ng·h/mL in data set [1] (SL), 785 ng·h/mL in data set [2] (SC) and 1260 ng·h/mL in data set [2] (SL).
